Target: bovine cerebral TPK1 (Bos taurus, UniProt A0A059UE90)
Test: Inhibitory activity against P-GS1 phosphorylation by bovine cerebral TPK1
Type: biochemical
Details: P-GS1 substrate, 41.7 μM [γ-32P] ATP, 25° C., 2 hours
Experimental: Experiment 1: Inhibitory Activity of the Medicament of the Present Invention Against P-GS1 Phosphorylation by Bovine Cerebral TPK1
A mixture containing 100 mM MES-sodium hydroxide (pH 6.5), 1 mM magnesium acetate, 0.5 mM EGTA, 5 mM β-mercaptoethanol, 0.02% Tween 20, 10% glycerol, 12 μg/ml P-GS1, 41.7 μM [γ^−32P] ATP (68 kBq/ml), bovine cerebral TPK1 and a compound shown in Table (a final mixture contained 1.7% DMSO deriving from a solution of a test compound prepared in the presence of 10% DMSO) was used as a reaction system. The phosphorylation was started by adding ATP, and the reaction was conducted at 25° C. for 2 hours, and then stopped by adding 21% perchloric acid on ice cooling. The reaction mixture was centrifuged at 12,000 rpm for 5 minutes and adsorbed on P81 paper (Whatmann), and then the paper was washed four times with 75 mM phosphoric acid, three times with water and once with acetone. The paper was dried, and the residual radioactivity was measured using a liquid scintillation counter.

bovine cerebral TPK1, sequence (A0A059UE90 1-419): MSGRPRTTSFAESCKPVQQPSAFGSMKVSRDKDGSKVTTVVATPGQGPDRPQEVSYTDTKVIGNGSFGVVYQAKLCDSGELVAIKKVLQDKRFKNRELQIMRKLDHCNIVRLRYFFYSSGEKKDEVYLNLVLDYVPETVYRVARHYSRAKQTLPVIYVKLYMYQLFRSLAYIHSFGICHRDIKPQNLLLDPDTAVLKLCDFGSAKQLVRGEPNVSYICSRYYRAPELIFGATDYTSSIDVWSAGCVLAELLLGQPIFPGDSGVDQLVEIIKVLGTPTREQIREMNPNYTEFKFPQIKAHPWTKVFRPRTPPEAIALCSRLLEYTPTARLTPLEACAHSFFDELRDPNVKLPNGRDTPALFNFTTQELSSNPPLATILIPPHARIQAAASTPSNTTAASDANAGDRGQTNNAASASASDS

| IC50 [nM] | SMILES |
| --- | --- |
| 10.1 | Cn1c(N2CCNC(c3ccc(C#N)cc3)C2)nc(-c2ncncc2F)cc1=O (centres unmarked) [Compound 6, 4-[4-(5′-Fluoro-1-methyl-6-oxo-1,6-dihydro-[4,4′]bipyrimidinyl-2-yl)-piperazin-2yl]-benzonitrile] |
| 15.5 | Cn1c(N2CCO[C@@H](c3ccc(F)cc3)C2)nc(-c2ncncc2F)cc1=O [Compound 1, (S)-5′-fluoro-2-[2-(4-fluoro-phenyl)-morpholin-4-yl]-1-methyl-1H-[4,4′]bipyrimidinyl-6-one] |

— US8940738B2, “Pyrimidone compounds” (Mitsubishi Tanabe Pharma Corporation, priority 2009, dated 2015)
